Source: ChEMBL document CHEMBL3217414, “Trifluoromethyl derivatives of canonical nucleosides: synthesis and bioactivity studies” (Medchemcomm, 2013)

Tests used:
MCF7 = test: Cytotoxicity against human MCF7 cells assessed as inhibition of cell viability after 48 hrs by MTT assay; format: functional, cell-based; conditions: for IC50: MCF7, 48 h
L6 = test: Cytotoxicity against rat L6 cells assessed as inhibition of cell viability after 48 hrs by MTT assay; format: cell-based; conditions: for IC50: Rattus norvegicus, L6, 48 h
C6 = test: Cytotoxicity against rat C6 cells assessed as inhibition of cell viability after 48 hrs by MTT assay; format: functional, cell-based; conditions: for IC50: C6, 48 h
DU-145 = test: Cytotoxicity against human DU145 cells assessed as inhibition of cell viability after 48 hrs by MTT assay; format: functional, cell-based; conditions: for IC50: DU-145, 48 h
HaCaT = test: Cytotoxicity against human HaCaT cells assessed as inhibition of cell viability after 48 hrs by MTT assay; format: cell-based; conditions: for IC50: Homo sapiens, HaCaT
Hepatitis B virus = test: Antiviral activity against Hepatitis B virus; format: functional, organism-based

SMILES	inhibition (MCF7)	IC50 (MCF7) [µM]	IC50 (L6) [µM]	inhibition (INH) (L6; rat, l6, 48 h)	inhibition (C6)	IC50 (C6) [µM]	inhibition (DU-145)	IC50 (DU-145) [µM]	IC50 (HaCaT) [µM]	inhibition (INH) (HaCaT; human, hacat)	IC50 (Hepatitis B virus) [µM]
Nc1nc2c(nc(C(F)(F)F)n2[C@H]2C[C@H](O)[C@@H](CO)O2)c(=O)[nH]1	Dose-dependent effect	76	234	Dose-dependent effect	Dose-dependent effect	92	Dose-dependent effect	72	210	Dose-dependent effect	–
Nc1nc(=O)n([C@H]2C[C@H](O)[C@@H](CO)O2)cc1C(F)(F)F	–	32	155	–	–	44	–	25	140	–	–
O=c1[nH]cnc2c1ncn2[C@@H]1O[C@H](CO)[C@@H](O)[C@H]1O [INOSINE]	–	> 250	> 250	–	–	> 250	–	> 250	> 250	–	–
Nc1ccn([C@H]2C[C@H](O)[C@@H](CO)O2)c(=O)n1 [DOXECITINE]	–	> 250	> 250	–	–	> 250	–	> 250	> 250	–	–
Nc1ncnc2c1ncn2[C@H]1C[C@H](O)[C@@H](CO)O1 [DEOXYADENOSINE]	–	> 250	> 250	–	–	> 250	–	> 250	> 250	–	–
Nc1ccn([C@H]2C=C(C(F)(F)F)[C@@H](CO)O2)c(=O)n1	–	–	–	–	–	–	–	–	–	–	10
Nc1ncnc2c1ncn2[C@H]1C=C(C(F)(F)F)[C@@H](CO)O1	–	–	–	–	–	–	–	–	–	–	5
O=c1[nH]cnc2c1nc(C(F)(F)F)n2[C@@H]1O[C@H](CO)[C@@H](O)[C@H]1O	–	105	195	–	–	142	–	131	170	–	–
Nc1nc(O)c2ncn([C@H]3C[C@H](O)[C@@H](CO)O3)c2n1 [DEOXYGUANOSINE]	–	> 250	> 250	–	–	> 250	–	> 250	> 250	–	–
Nc1ncnc2c1nc(C(F)(F)F)n2[C@H]1C[C@H](O)[C@@H](CO)O1	–	65	225	–	–	81	–	50	214	–	–
